Key:
MMP1 = target: T1, MMP1 (Homo sapiens, UniProt P03956); test: Activity of purified MMP on substrate (reporter release); type: biochemical
T1 sequence (P03956 100-469): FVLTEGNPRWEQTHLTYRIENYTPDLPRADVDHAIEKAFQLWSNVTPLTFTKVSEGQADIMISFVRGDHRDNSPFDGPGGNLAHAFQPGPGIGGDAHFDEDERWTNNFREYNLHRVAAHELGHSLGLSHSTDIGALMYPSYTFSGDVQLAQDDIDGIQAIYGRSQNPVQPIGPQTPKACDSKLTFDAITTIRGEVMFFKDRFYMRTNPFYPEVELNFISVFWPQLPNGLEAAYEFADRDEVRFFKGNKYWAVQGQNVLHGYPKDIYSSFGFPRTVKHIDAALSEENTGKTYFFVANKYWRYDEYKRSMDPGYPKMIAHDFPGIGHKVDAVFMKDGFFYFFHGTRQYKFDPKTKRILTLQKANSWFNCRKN
From the text: (§1) In order to confirm the specificity of the substrates for various MMPs, standard enzymatic assays were adapted to monitor the release of reporter. The reporter was either analysed by a LC-MS method as described in Example 3a, or by a LC-UV method as described in Example 4. A protocol for testing against other matrix metalloproteinases, including MMP9, using expressed and purified pro MMP is described, for instance, by C.

MMP3 = MMP3 (Homo sapiens, UniProt P08254); test: as above; type: biochemical
MMP3, sequence (P08254 100-477): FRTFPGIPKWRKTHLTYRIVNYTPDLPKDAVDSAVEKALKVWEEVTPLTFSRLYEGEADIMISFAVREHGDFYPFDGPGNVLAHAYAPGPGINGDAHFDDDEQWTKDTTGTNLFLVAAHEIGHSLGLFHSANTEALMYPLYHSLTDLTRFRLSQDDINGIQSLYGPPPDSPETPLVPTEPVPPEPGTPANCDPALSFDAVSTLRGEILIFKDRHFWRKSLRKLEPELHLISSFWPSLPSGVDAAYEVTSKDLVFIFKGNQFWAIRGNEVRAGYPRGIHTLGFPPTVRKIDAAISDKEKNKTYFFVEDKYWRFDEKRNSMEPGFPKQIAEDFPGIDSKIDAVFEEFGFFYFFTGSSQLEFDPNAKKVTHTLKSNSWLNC
From the text: as §1

MMP12 = target: T2, MMP12 (Homo sapiens, UniProt P39900); test: as above; type: biochemical; conditions: 30 μM substrate; MMP Conc. 0.27 nM; ABL010827
T2 construct: Recombinant human MMP12 catalytic domain may be expressed and purified; made in house
T2 sequence (P39900 106-263 limits assumed): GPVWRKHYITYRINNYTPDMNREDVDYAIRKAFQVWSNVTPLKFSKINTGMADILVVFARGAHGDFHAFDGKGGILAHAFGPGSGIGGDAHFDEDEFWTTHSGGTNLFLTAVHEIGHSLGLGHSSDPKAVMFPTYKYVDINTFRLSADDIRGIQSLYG
From the text: (§2) In order to confirm the specificity of the substrates for various MMPs, standard enzymatic assays were adapted to monitor the release of reporter. The reporter was either analysed by a LC-MS method as described in Example 3a, or by a LC-UV method as described in Example 4.
Recombinant human MMP12 catalytic domain may be expressed and purified as described by Parkar A. A. et al, (2000), Protein Expression and Purification, 20, 152. The purified enzyme can be used to monitor activity of substrates as follows: MMP12 (50 ng/ml final […]) in assay buffer (0.1M “Tris-HCl” (trade mark) buffer, pH 7.3 containing 0.1M NaCl, 20 mM CaCl2, 0.020 mM ZnCl and 0.05% (w/v) “Brij 35” (trade mark) detergent) in the presence or absence of inhibitors. Activity is determined by measuring the release of reporter 4-nitroaniline by the using the method in Example 3a.

MMP2 = target: T3, MMP2 (Homo sapiens, UniProt P08253); test: as above; type: biochemical; conditions: 30 μM substrate; MMP Conc. 0.71 nM; Chemicon #CC071
T3 sequence (P08253 110-660): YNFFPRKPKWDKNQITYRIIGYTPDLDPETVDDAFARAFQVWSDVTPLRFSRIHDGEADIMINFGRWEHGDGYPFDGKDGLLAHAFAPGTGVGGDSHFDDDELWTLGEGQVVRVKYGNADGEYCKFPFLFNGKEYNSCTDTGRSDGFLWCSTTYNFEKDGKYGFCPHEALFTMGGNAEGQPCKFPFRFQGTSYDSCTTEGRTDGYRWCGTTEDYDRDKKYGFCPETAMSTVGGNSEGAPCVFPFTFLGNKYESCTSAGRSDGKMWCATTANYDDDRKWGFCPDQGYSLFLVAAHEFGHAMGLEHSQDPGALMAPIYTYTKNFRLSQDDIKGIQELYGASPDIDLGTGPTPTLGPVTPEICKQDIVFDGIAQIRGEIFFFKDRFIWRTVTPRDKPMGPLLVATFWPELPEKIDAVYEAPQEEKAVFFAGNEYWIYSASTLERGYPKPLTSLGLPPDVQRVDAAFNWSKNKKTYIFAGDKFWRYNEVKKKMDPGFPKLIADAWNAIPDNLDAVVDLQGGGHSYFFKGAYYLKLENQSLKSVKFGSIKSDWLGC
From the text: as §2
A protocol for testing against other matrix metalloproteinases, including MMP9, using expressed and purified pro MMP is described, for instance, by C. Graham Knight et al., (1992) FEBS Lett., 296(3), 263-266.

MMP14 = test: as above; type: biochemical, human; conditions: 30 μM substrate; MMP Conc. 4.8 nM; AZL0078
From the text: as §2
Recombinant human MMP14 catalytic domain may be expressed and purified as described by Parkar A. A. et al, (2000), Protein Expression and Purification, 20, 152. The purified enzyme can be used to monitor activity of substrates as follows: MMP14 (10 ng/ml final […]) in assay buffer (0.1M “Tris-HCl” (trade mark) buffer, pH 7.5 containing 0.1M NaCl, 20 mM CaCl2, 0.020 mM ZnCl and 0.05% (w/v) “Brij 35” (trade mark) detergent) in the presence or absence of inhibitors. Activity is determined by measuring the release of reporter 4-nitroaniline by the using the method in Example 3a.

MMPs = test: Cleavage of separated diastereomers by MMPs to liberate the reporter; type: biochemical

SMILES: COC(=O)CCNC(=O)[C@H](CC(C)C)NC(=O)[C@@H](NC(=O)CNC(=O)[C@H](CC(C)C)NC(=O)[C@@H]1CCCN1C(C)=O)Nc1ccc([N+](=O)[O-])cc1 [Example 1.1, Methyl 1-acetyl-L-prolyl-L-leucylglycyl-α-R-(4-nitrophenylamino)-glycyl-L-leucyl-β-alaninate]
- Activity (MMP1; 30 μM substrate, MMP Conc. 9.3 nM, Calbiochem #444208): 0.16 units/s
- Activity of selected substrates with MMPs (MMP1; Table 1b, MMP1): 26.1 units/s (molRXH/molEnz * s)
- Activity (MMP3; 30 μM substrate, MMP Conc. 19 nM, AZL0095): 0.048 units/s
- Activity of selected substrates with MMPs (MMP3; Table 1b, MMP3): 3.8 units/s (molRXH/molEnz * s)
- Activity (MMP12): 7.7 units/s
- Activity (MMP2): 2.3 units/s
- Activity (MMP14): 1.0 units/s
- Cleavage by MMPs to liberate the reporter (MMPs): rapidly cleaved by MMPs
